Read-outs that look alike come from different tables or passages of the source.
What was measured:
[1] = test system: A/PR/8/34 influenza virus; assay: microbe, parasite or virus in culture; assay type: cell-based
[2] = test system: influenza A virus (A/PR/8/34); assay: microbe, parasite or virus in culture; assay type: cell-based
[3] = Influenza A virus, PR/8, MDCK, MDCK cells infected with A/PR/8/34, bDNA viral RNA, read-out: EC50 (mean all)
[4] = Influenza A virus, PR/8, MDCK, MDCK cells infected with A/PR/8/34, cell protection (CPE), read-out: IC50 (mean all)
[5] = Influenza A virus, PR/8, MDCK, mean all, A/PR/8/34 influenza virus in MDCK cells, bDNA assay, read-out: EC50
[6] = Influenza A virus, PR/8, MDCK, mean all, A/PR/8/34 infected MDCK cells, CPE assay, read-out: IC50
[7] = mean all, bDNA viral RNA in MDCK cells infected with A/PR/8/34, read-out: EC50
[8] = mean all, MDCK cells infected with A/PR/8/34, cell protection (CPE), read-out: IC50
[9] = Influenza A virus, PR/8, MDCK, MDCK cells infected with A/PR/8/34, replication of influenza virus (viral RNA, bDNA), class symbols, read-out: EC50 (mean all)
[10] = Influenza A virus, PR/8, MDCK, MDCK cells infected with A/PR/8/34, survival of infected cells, class symbols, read-out: IC50 (mean all)

Which results are given for `O=C(c1ccco1)N1CCC[C@H](CNc2nc(-c3c[nH]c4ncc(Cl)cc34)ncc2F)C1` [Compound 102, (R)-(3-((2-(5-chloro-1H-pyrrolo[2,3-b]pyridin-3-yl)-5-fluoropyrimidin-4-ylamino)methyl)piperidin-1-yl)(furan-2-yl)methanone]?
EC50 [1, 3]: < 5 µM; IC50 [2, 4]: < 5 µM

Which results are given for `CC(=O)NC[C@]1(O)CCC[C@H](Nc2nc(-c3c[nH]c4ncc(Cl)cc34)ncc2F)C1` [Compound 857]?
EC50 ([1]; Influenza A virus, PR/8, mean all, A/PR/8/34 influenza virus replication, bDNA, read-out: EC50): < 5 µM; IC50 ([2]; Influenza A virus, PR/8, MDCK, mean all, A/PR/8/34 infected MDCK cells, cell protection (CPE), read-out: IC50): < 5 µM

What does the source list for `Cc1cccc(C(=O)N2CCC[C@H](CNc3nc(-c4c[nH]c5ncc(Cl)cc45)ncc3F)C2)c1C` [Compound 157, (R)-(3-((2-(5-chloro-1H-pyrrolo[2,3-b]pyridin-3-yl)-5-fluoropyrimidin-4-ylamino)methyl)piperidin-1-yl)(2,3-dimethylphenyl)methanone]?
EC50 [1, 3]: < 5 µM; IC50 [2, 4]: < 5 µM

For `CNC(=O)N[C@H]1CCC[C@@H](Nc2nc(-c3c[nH]c4ncc(Cl)cc34)ncc2F)C1` (relative stereo) [Compound 455, 1-[cis-3-[[2-(5-chloro-1H-pyrrolo[2,3-b]pyridin-3-yl)-5-fluoro-pyrimidin-4-yl]amino]cyclohexyl]-3-methyl-urea], which EC50 [1, 5] is on record?
The EC50 was less than 5 µM.

And the IC50 [2, 6]?
The IC50 was less than 5 µM.

Which results are given for `O=C(CN1CCOCC1)NC1CCCC(Nc2nc(-c3c[nH]c4ncc(Cl)cc34)ncc2F)C1` (centres unmarked) [Compound 730]?
EC50 [1, 7]: < 5 µM; IC50 [2, 8]: < 5 µM

With `CCNC(=O)N1CCC[C@H](Nc2nc(-c3c[nH]c4ncc(Cl)cc34)ncc2F)C1` [Compound 438] as the compound, how does the EC50 [1, 5] read?
The EC50 was less than 5 µM.

And the IC50 [2, 6]?
The IC50 was less than 5 µM.

“(R)—N-tert-butyl-3-((2-(5-chloro-1H-pyrrolo[2,3-b]pyridin-3-yl)-5-fluoropyrimidin-4-ylamino)methyl)piperidine-1-carboxamide [Compound 117]” was tested. Which EC50 ([1]; read-out: EC50 (mean all)) did it give?
Its EC50 is less than 5 µM.

What about the IC50 ([2]; read-out: IC50 (mean all)) of the same compound?
Its IC50 is less than 5 µM.

`O=S(=O)(CCCCl)N1CCCC[C@@H]1CNc1nc(-c2c[nH]c3ncc(Cl)cc23)ncc1F` [Compound 330, (R)-2-(5-chloro-1H-pyrrolo[2,3-b]pyridin-3-yl)-N-((1-(3-chloropropylsulfonyl)piperidin-2-yl)methyl)-5-fluoropyrimidin-4-amine] was tested. Which EC50 [1, 5] did it give?
The EC50 was less than 5 µM.

What about the IC50 [2, 6] of the same compound?
Its IC50 is less than 5 µM.

For `CN1CCC[C@H](Nc2nc(-c3c[nH]c4ncc(Cl)cc34)ncc2F)C1=O` [Compound 397], which EC50 [1, 5] is on record?
Its EC50 is less than 5 µM.

What about the IC50 [2, 6] of the same compound?
The IC50 was less than 5 µM.

What does the source list for `CC(C)(C)c1nc(-c2c[nH]c3ncc(Cl)cc23)nc(N[C@H]2CCCC[C@@H]2C(=O)O)c1F` [Compound 629, (1S,2S)-2-(6-tert-butyl-2-(5-chloro-1H-pyrrolo[2,3-b]pyridin-3-yl)-5-fluoropyrimidin-4-ylamino)cyclohexanecarboxylic acid]?
EC50 ([1]; Influenza A virus, PR/8, MDCK, bDNA assay, A/PR/8/34 influenza virus replication in MDCK cells, class symbols, read-out: EC50 (mean all)): < 5 µM; IC50 ([2]; Influenza A virus, PR/8, MDCK, CPE assay, A/PR/8/34 infected MDCK cells, class symbols, read-out: IC50 (mean all)): < 5 µM

For `CN1CCCC[C@H](Nc2nc(-c3c[nH]c4ncc(Cl)cc34)ncc2F)C1=O` [Compound 461], which EC50 [1, 5] is on record?
The EC50 was less than 5 µM.

What about the IC50 [2, 6] of the same compound?
Its IC50 is less than 5 µM.

For `O=C(OCCF)N1CCCC[C@@H]1CNc1nc(-c2c[nH]c3ncc(Cl)cc23)ncc1F` [Compound 180, (R)-2-fluoroethyl 2-((2-(5-chloro-1H-pyrrolo[2,3-b]pyridin-3-yl)-5-fluoropyrimidin-4-ylamino)methyl)piperidine-1-carboxylate], which EC50 [1, 3] is on record?
The EC50 was less than 5 µM.

And the IC50 [2, 4]?
The IC50 was less than 5 µM.

With `O=C(c1ccccc1Cl)N1CCC[C@H](CNc2nc(-c3c[nH]c4ncc(Cl)cc34)ncc2F)C1` [Compound 84, (R)-(3-((2-(5-chloro-1H-pyrrolo[2,3-b]pyridin-3-yl)-5-fluoropyrimidin-4-ylamino)methyl)piperidin-1-yl)(2-chlorophenyl)methanone] as the compound, how does the EC50 [1, 3] read?
The EC50 was less than 5 µM.

And the IC50 [2, 4]?
The IC50 was less than 5 µM.

Which EC50 ([1]; Influenza A virus, PR/8, 30 h, HA(−) 30 hr, A/PR/8, bDNA, mean all, read-out: Cell Influenza HA(−) 30 hr A/PR/8 bDNA:bDNA EC50 uM(Mean (All))) does the source give for `COc1c(F)cnc2[nH]cc(-c3ncc(F)c(N[C@H]4CCC[C@@H](NC(=O)N5CC[C@@H](F)C5)C4)n3)c12` [Compound 1104, (R)-3-fluoro-N-((1R,3S)-3-((5-fluoro-2-(5-fluoro-4-methoxy-1H-pyrrolo[2,3-b]pyridin-3-yl)pyrimidin-4-yl)amino)cyclohexyl)pyrrolidine-1-carboxamide] here?
Its EC50 is less than 5 µM.

What about the IC50 ([2]; Influenza A virus, PR/8, MDCK, MDCK cells, A/PR/8/34, ATP readout, mean all, read-out: Cell Flu, MDCK protection, ATP (All: IC50: uM)(Mean (All))) of the same compound?
Its IC50 is less than 5 µM.

What does the source list for `CCC1(O)CCCC(Nc2nc(-c3c[nH]c4ncc(Cl)cc34)ncc2F)C1` (single isomer, unassigned) [Compound 709]?
EC50 [1, 7]: < 5 µM; IC50 [2, 8]: < 5 µM

For `CCOC(=O)N1CCOCC1CNc1nc(-c2c[nH]c3ncc(Cl)cc23)ncc1F` (centres unmarked) [Compound 527, Ethyl 3-((2-(5-chloro-1H-pyrrolo[2,3-b]pyridin-3-yl)-5-fluoropyrimidin-4-ylamino)methyl)morpholine-4-carboxylate], which EC50 [1, 9] is on record?
The EC50 was greater than 10 µM.

What about the IC50 [2, 10] of the same compound?
The IC50 was greater than 20 µM.

`O=C(NCC1CC1)C1CCCC(Nc2nc(-c3c[nH]c4ncc(Cl)cc34)ncc2F)C1` (centres unmarked) [Compound 719] was tested. Which EC50 [1, 7] did it give?
Its EC50 is less than 5 µM.

And the IC50 [2, 8]?
The IC50 was less than 5 µM.

For `CN1CCC(Nc2nc(-c3c[nH]c4ncc(Cl)cc34)ncc2F)C1=O` (centres unmarked) [Compound 379], which EC50 [1, 5] is on record?
The EC50 was less than 5 µM.

And the IC50 [2, 6]?
The IC50 was 5 to 20 µM.

Which results are given for `O=C(O)[C@H]1[C@@H]2CC[C@@H](C2)[C@@H]1Nc1nc(-c2c[nH]c3ncc(Cl)cc23)ncc1F` (racemic) [Compound 946]?
EC50 ([1]; Influenza A virus, PR/8, mean all, replication of A/PR/8/34 influenza virus (bDNA assay), read-out: EC50): < 5 µM; IC50 ([2]; Influenza A virus, PR/8, MDCK, mean all, survival of A/PR/8/34 infected MDCK cells (CPE assay), read-out: IC50): < 5 µM

`C=CCOC(=O)N1CCC[C@H](CNc2nc(-c3c[nH]c4ncc(Cl)cc34)ncc2F)C1` [Compound 119, (R)-allyl 3-((2-(5-chloro-1H-pyrrolo[2,3-b]pyridin-3-yl)-5-fluoropyrimidin-4-ylamino)methyl)piperidine-1-carboxylate] was tested. Which EC50 [1, 3] did it give?
Its EC50 is less than 5 µM.

And the IC50 [2, 4]?
The IC50 was less than 5 µM.

For `CCCS(=O)(=O)N1CCCC(Nc2ccnc(-c3c[nH]c4ncc(Cl)cc34)n2)C1` (centres unmarked) [Compound 464], which EC50 ([1]; mean all, A/PR/8/34 influenza virus in MDCK cells, bDNA assay, read-out: EC50) is on record?
The EC50 was less than 5 µM.

What about the IC50 ([2]; mean all, A/PR/8/34 infected MDCK cells, CPE assay, read-out: IC50) of the same compound?
Its IC50 is less than 5 µM.

For `C#CC1(O)CCCC(Nc2nc(-c3c[nH]c4ncc(Cl)cc34)ncc2F)C1` (centres unmarked) [Compound 618], which EC50 ([1]; bDNA assay, A/PR/8/34 influenza virus replication in MDCK cells, class symbols, read-out: EC50 (mean all)) is on record?
Its EC50 is less than 5 µM.

And the IC50 ([2]; CPE assay, A/PR/8/34 infected MDCK cells, class symbols, read-out: IC50 (mean all))?
The IC50 was less than 5 µM.

Which EC50 [1, 3] does the source give for `C#CCCC(=O)N1CCC[C@@H](CNc2nc(-c3c[nH]c4ncc(Cl)cc34)ncc2F)C1` [Compound 52, (S)-1-(3-((2-(5-chloro-1H-pyrrolo[2,3-b]pyridin-3-yl)-5-fluoropyrimidin-4-ylamino)methyl)piperidin-1-yl)pent-4-yn-1-one] here?
Its EC50 is less than 5 µM.

What about the IC50 [2, 4] of the same compound?
The IC50 was less than 5 µM.

What does the source list for `Cc1cc(NC(=O)N2CCC[C@H](CNc3nc(-c4c[nH]c5ncc(Cl)cc45)ncc3F)C2)c(C(F)(F)F)o1` [Compound 120, (R)-3-((2-(5-chloro-1H-pyrrolo[2,3-b]pyridin-3-yl)-5-fluoropyrimidin-4-ylamino)methyl)-N-(5-methyl-2-(trifluoromethyl)furan-3-yl)piperidine-1-carboxamide]?
EC50 [1, 3]: < 5 µM; IC50 [2, 4]: < 5 µM

How did the EC50 [1, 9] turn out when `OC1CCCC(Nc2nc(-c3c[nH]c4ncc(Cl)cc34)ncc2F)C1` [Compound 524, (3S)-3-((2-(5-chloro-1H-pyrrolo[2,3-b]pyridin-3-yl)-5-fluoropyrimidin-4-ylamino)cyclohexanol] was run?
The EC50 was less than 5 µM.

What about the IC50 [2, 10] of the same compound?
The IC50 was less than 5 µM.

Which results are given for `CCOC(=O)[C@@H]1CCCC[C@H]1Nc1nc(-c2c[nH]c3ncc(Cl)cc23)ncc1F` [Compound 560, (1R,2R)-ethyl 2-(2-(5-chloro-1H-pyrrolo[2,3-b]pyridin-3-yl)-5-fluoropyrimidin-4-ylamino)cyclohexanecarboxylate]?
EC50 [1, 9]: > 10 µM; IC50 [2, 10]: > 10 µM

Which results are given for `CN(C)CC(=O)NC1CCCC(Nc2nc(-c3c[nH]c4ncc(Cl)cc34)ncc2F)C1` (centres unmarked) [Compound 725]?
EC50 [1, 7]: < 5 µM; IC50 [2, 8]: < 5 µM

Which results are given for `COCCC(=O)N1CCC[C@H](CNc2ccnc(-c3c[nH]c4ncc(Cl)cc34)n2)C1` [Compound 493, (R)-1-(3-((2-(5-chloro-1H-pyrrolo[2,3-b]pyridin-3-yl)pyrimidin-4-ylamino)methyl)piperidin-1-yl)-3-methoxypropan-1-one]?
EC50 [1, 9]: < 5 µM; IC50 [2, 10]: < 5 µM

What does the source list for `CS(=O)(=O)N1CC[C@H](Nc2nc(-c3c[nH]c4ncc(Cl)cc34)ncc2F)C1` [Compound 398, (S)-2-(5-chloro-1H-pyrrolo[2,3-b]pyridin-3-yl)-5-fluoro-N-(1-(methylsulfonyl)pyrrolidin-3-yl)pyrimidin-4-amine]?
EC50 [1, 5]: < 5 µM; IC50 [2, 6]: < 5 µM

For `COCCC(=O)N1CCC[C@H](Nc2nc(-c3c[nH]c4ncc(Cl)cc34)ncc2F)C1` [Compound 396], which EC50 [1, 5] is on record?
Its EC50 is less than 5 µM.

And the IC50 [2, 6]?
The IC50 was less than 5 µM.

With `C#CCCCC(=O)N1CCCC[C@@H]1CNc1nc(-c2c[nH]c3ncc(Cl)cc23)ncc1F` [Compound 281, (R)-1-(2-((2-(5-chloro-1H-pyrrolo[2,3-b]pyridin-3-yl)-5-fluoropyrimidin-4-ylamino)methyl)piperidin-1-yl)hex-5-yn-1-one] as the compound, how does the EC50 [1, 3] read?
Its EC50 is less than 5 µM.

What about the IC50 [2, 4] of the same compound?
Its IC50 is less than 5 µM.
